The test system of assay [1] is LoVo. The assay can be described thus: Antiproliferative activity against human LoVo cells assessed as reduction in cell viability incubated for 120 hrs by Cell-titer Glo luminescent assay.
The test system of assay [2] is NCI-H1703. Put plainly: Antitumor activity against human NCI-H1703 cells xenografted in female Balb/c nude mouse assessed as tumor growth inhibition at 50 mg/kg […] administered as 3 days on and 4 days off schedule for 4 weeks relative to control. The format is functional. The following applies: NCI-H1703, 672 h, time 28 day, read-out: TGI. For orientation: Xenograft models place foreign cells or tissue in a host animal.

The subject of assay [3] is Huh-7. The assay can be described thus: Antiproliferative activity against human Huh-7 cells assessed as reduction in cell viability incubated for 120 hrs by Cell-titer Glo luminescent assay. It counts as functional, cell-based.
In assay [4] the test system is A2780. The assay can be described thus: Antiproliferative activity against human A2780 cells assessed as reduction in cell viability incubated for 120 hrs by Cell-titer Glo luminescent assay. It counts as functional, cell-based.
Assay [5] concerns LoVo. The assay can be described thus: Inhibition of DNA damage repair in human LoVo cells assessed as decrease in MRE11 expression level incubated for 24 hrs by Western blot analysis. The settings on record: dose 0.3-1 µM. It counts as functional, cell-based. A general note: A western blot detects proteins with antibodies after separation by electrophoresis.
Assay [6] deals with Kappa-type opioid receptor (Homo sapiens) (UniProt P41145). Put plainly: Inhibition of human kappa opioid at 10 uM. The settings on record: time 75.0 min.
The subject of assay [7] is T-24. Put plainly: Antiproliferative activity against human T24 cells assessed as reduction in cell viability incubated for 120 hrs by Cell-titer Glo luminescent assay. The format is functional, cell-based.
For assay [8], the species on record is Homo sapiens. Put plainly: Inhibition of DNA-PK (unknown origin) at 10 uM preincubated for 15 mins and measured after 60 mins by Z-LYTE screening relative to control. The settings on record: time 75.0 min.
Assay [9] concerns LoVo. Put plainly: Induction of cell cycle arrest in human LoVo cells assessed as accumulation of cells at G2 phase incubated for 24 hrs by PI staining based flow cytometric analysis. It counts as functional. The settings on record: dose 1-3 µM. On the technique in general: Flow cytometry measures light scatter and fluorescence of single cells or particles in a stream.
In assay [10] the test system is HepG2. The assay can be described thus: Antiproliferative activity against human HepG2 cells assessed as reduction in cell viability incubated for 120 hrs by Cell-titer Glo luminescent assay. It counts as functional, cell-based.
Assay [11] concerns JeKo-1. Put plainly: Antiproliferative activity against human JeKo-1 cells assessed as reduction in cell viability incubated for 120 hrs by Cell-titer Glo luminescent assay. It counts as functional, cell-based.
For assay [12], the system named is MCF7. The assay can be described thus: Antiproliferative activity against human MCF7 cells assessed as reduction in cell viability incubated for 120 hrs by Cell-titer Glo luminescent assay. The format is functional, cell-based.
For assay [13], the target named is Proto-oncogene tyrosine-protein kinase ROS (Homo sapiens) (UniProt P08922). The assay can be described thus: Inhibition of ROS1 (unknown origin) at 10 uM preincubated for 15 mins and measured after 60 mins by Z-LYTE screening relative to control. The settings on record: time 75.0 min.
For assay [14], the system named is LoVo. The assay can be described thus: Inhibition of DNA damage repair in human LoVo cells assessed as decrease in RAD51 expression level incubated for 24 hrs by Western blot analysis. It counts as functional, cell-based. The settings on record: dose 0.3-1 µM.
Assay [15] concerns the target Phosphatidylinositol 4-phosphate 3-kinase C2 domain-containing subunit beta (Homo sapiens) (UniProt O00750). Put plainly: Inhibition of PIK3C2B (unknown origin) at 10 uM preincubated for 15 mins and measured after 60 mins by Z-LYTE screening relative to control. The following applies: time 75.0 min.
In assay [16] the test system is U2OS. Put plainly: Antiproliferative activity against human U2OS cells assessed as reduction in cell viability incubated for 120 hrs by Cell-titer Glo luminescent assay. It counts as functional, cell-based.
In assay [17] the test system is MDA-MB-436. Put plainly: Antiproliferative activity against human MDA-MB-436 cells assessed as reduction in cell viability incubated for 120 hrs by Cell-titer Glo luminescent assay. The format is functional, cell-based.
Assay [18] has as its system SK-OV-3. The assay can be described thus: Antiproliferative activity against human SK-OV-3 cells assessed as reduction in cell viability incubated for 120 hrs by Cell-titer Glo luminescent assay. The format is functional, cell-based.
In assay [19] the test system is MDA-MB-453. Put plainly: Antiproliferative activity against human MDA-MB-453 cells assessed as reduction in cell viability incubated for 120 hrs by Cell-titer Glo luminescent assay. It counts as functional, cell-based.
In assay [20] the test system is LNCaP. The assay can be described thus: Antiproliferative activity against human LNCaP cells assessed as reduction in cell viability incubated for 120 hrs by Cell-titer Glo luminescent assay. It counts as functional, cell-based.
Assay [21] relates to CWR22R. The assay can be described thus: Antiproliferative activity against human 22Rv1 cells incubated for 120 hrs by Cell-titer Glo luminescent assay.
Assay [22] deals with KATO III. Put plainly: Antiproliferative activity against human KATO III stomach cancer cell line assessed as reduction in cell viability incubated for 120 hrs by Cell-titer Glo luminescent assay. It counts as functional, cell-based.
The test system of assay [23] is OVCAR-8. The assay can be described thus: Antiproliferative activity against human OVCAR-8 cells assessed as reduction in cell viability incubated for 120 hrs by Cell-titer Glo luminescent assay. It counts as functional, cell-based.
The subject of assay [24] is HCT-116. The assay can be described thus: Antiproliferative activity against human HCT-116 cells assessed as reduction in cell viability incubated for 120 hrs by Cell-titer Glo luminescent assay. The format is functional, cell-based.
Assay [25] concerns LoVo. The assay can be described thus: Inhibition of DNA damage repair in human LoVo cells assessed as upregulation of p-Histone H2A.X protein level at 0.3 to 1 uM incubated for 24 hrs by Western blot analysis. It counts as functional, cell-based. The settings on record: dose 0.3-1 µM.
In assay [26] the test system is NCI-H69. Put plainly: Antiproliferative activity against human NCI-H69 cells assessed as reduction in cell viability incubated for 120 hrs by Cell-titer Glo luminescent assay. The format is functional, cell-based.
Assay [27] deals with JeKo-1. The assay can be described thus: Antitumor activity against human JeKo-1 cells xenografted in female CB17 SCID mouse at 40 mg/kg BID, po administered as 3 days on and 4 days off schedule for 24 days. It counts as functional, organism-based. The following applies: time 24.0 day.
Assay [28] has as its target Serine/threonine-protein kinase mTOR (Homo sapiens, UniProt P42345). Put plainly: Inhibition of mTOR (unknown origin) at 10 uM preincubated for 15 mins and measured after 60 mins by Z-LYTE screening relative to control. The following applies: time 75.0 min.
Assay [29] concerns A549. The assay can be described thus: Antiproliferative activity against human A549 cells assessed as reduction in cell viability incubated for 120 hrs by Cell-titer Glo luminescent assay. It counts as functional, cell-based.
For assay [30], the system named is MDA-MB-231. The assay can be described thus: Antiproliferative activity against human MDA-MB-231 cells assessed as reduction in cell viability incubated for 120 hrs by Cell-titer Glo luminescent assay. The format is functional, cell-based.
Assay [31] has as its system LoVo. The assay can be described thus: Inhibition of DNA damage repair in human LoVo cells assessed as decrease in Chk1 expression level incubated for 24 hrs by Western blot analysis. The format is functional, cell-based. The settings on record: dose 0.3-1 µM.
Assay [32] relates to NCI-H1703. Put plainly: Antiproliferative activity against human NCI-H1703 cells assessed as reduction in cell viability incubated for 120 hrs by Cell-titer Glo luminescent assay. The format is functional, cell-based.
For assay [33], the system named is CWR22R. Put plainly: Antitumor activity against human 22Rv1 cells xenografted in male Balb/c nude mouse assessed as tumor growth inhibition at 10 to 60 mg/kg QD, po measured every 3 days for 18 days. The format is functional, organism-based. The settings on record: dose 10-60 mg/kg, time 18.0 day.
For assay [34], the system named is NCI-H146. The assay can be described thus: Antiproliferative activity against human NCI-H146 cells. The format is functional, cell-based.
Assay [35] has as its target Serine/threonine-protein kinase ATR (Homo sapiens, UniProt Q13535). Put plainly: Inhibition of ATR (unknown origin) assessed as reduction in p53 phosphorylation level incubated for 30 mins by TR-FRET assay.
The subject of assay [36] is LoVo. The assay can be described thus: Induction of apoptosis in human LoVo cells assessed as necrotic cells at 3 uM incubated for 24 hrs by Annexin-V-FITC-PI staining based flow cytometric analysis (reference value: 0.97 %). The format is functional.
Assay [37] has as its system NCI-H1703. Put plainly: Antitumor activity against human NCI-H1703 cells xenografted in female Balb/c nude mouse assessed as tumor growth inhibition at 50 mg/kg QD, po measured every 3 days for 28 days by vernier caliper based analysis relative to control. The format is functional. The settings on record: NCI-H1703, 672 h, time 28 day, read-out: TGI.
The subject of assay [38] is CWR22R. Put plainly: Antiproliferative activity against human 22Rv1 cells incubated for 120 hrs by Cell-titer Glo luminescent assay. The following applies: 22Rv1, 120 h.
Assay [39] concerns LoVo. The assay can be described thus: Induction of apoptosis in human LoVo cells assessed as early apoptotic cells at 3 uM incubated for 24 hrs by Annexin-V-FITC-PI staining based flow cytometric analysis (reference value: 13.7 %). The format is functional.
In assay [40] the test system is JeKo-1. The assay can be described thus: Antitumor activity against human JeKo-1 cells xenografted in female CB17 SCID mouse assessed as tumor growth inhibition at 50 mg/kg BID, po measured every 2 days for 24 days relative to control. The following applies: JeKo-1, 576 h, time 24 day, read-out: TGI. It counts as functional.
Assay [41] has as its system LoVo. The assay can be described thus: Induction of apoptosis in human LoVo cells assessed as viable cells at 3 uM incubated for 24 hrs by Annexin-V-FITC-PI staining based flow cytometric analysis (reference value: 72.1 %). It counts as functional. The following applies: read-out: Activity.
Assay [42] concerns LoVo. The assay can be described thus: Induction of apoptosis in human LoVo cells assessed as late apoptotic cells at 3 uM incubated for 24 hrs by Annexin-V-FITC-PI staining based flow cytometric analysis (reference value: 13.2 %). The format is functional.
Assay [43] concerns LoVo. The assay can be described thus: Antitumor activity against human LoVo cells xenografted in female Balb/c nude mouse assessed as tumor growth inhibition at 50 mg/kg QD, po measured every 3 days for 25 days relative to control. It counts as functional. The following applies: 600 h, time 25 day, read-out: TGI.

Calls of active or inactive are those of the source. No cut-off for these calls is given here.

Chain of Kappa-type opioid receptor (Homo sapiens) (P41145 whole entry): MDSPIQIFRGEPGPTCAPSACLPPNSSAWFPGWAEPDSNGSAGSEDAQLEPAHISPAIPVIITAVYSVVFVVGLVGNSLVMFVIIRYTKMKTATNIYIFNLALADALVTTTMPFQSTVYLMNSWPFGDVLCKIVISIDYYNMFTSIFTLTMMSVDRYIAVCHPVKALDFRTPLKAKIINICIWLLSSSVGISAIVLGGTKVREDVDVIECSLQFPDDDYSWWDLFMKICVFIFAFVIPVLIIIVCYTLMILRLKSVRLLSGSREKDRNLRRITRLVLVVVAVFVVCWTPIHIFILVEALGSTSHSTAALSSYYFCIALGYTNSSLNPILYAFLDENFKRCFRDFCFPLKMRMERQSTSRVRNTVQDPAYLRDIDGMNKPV
Chain of Phosphatidylinositol 4-phosphate 3-kinase C2 domain-containing subunit beta (Homo sapiens) (O00750 whole entry, the tested form may be a part): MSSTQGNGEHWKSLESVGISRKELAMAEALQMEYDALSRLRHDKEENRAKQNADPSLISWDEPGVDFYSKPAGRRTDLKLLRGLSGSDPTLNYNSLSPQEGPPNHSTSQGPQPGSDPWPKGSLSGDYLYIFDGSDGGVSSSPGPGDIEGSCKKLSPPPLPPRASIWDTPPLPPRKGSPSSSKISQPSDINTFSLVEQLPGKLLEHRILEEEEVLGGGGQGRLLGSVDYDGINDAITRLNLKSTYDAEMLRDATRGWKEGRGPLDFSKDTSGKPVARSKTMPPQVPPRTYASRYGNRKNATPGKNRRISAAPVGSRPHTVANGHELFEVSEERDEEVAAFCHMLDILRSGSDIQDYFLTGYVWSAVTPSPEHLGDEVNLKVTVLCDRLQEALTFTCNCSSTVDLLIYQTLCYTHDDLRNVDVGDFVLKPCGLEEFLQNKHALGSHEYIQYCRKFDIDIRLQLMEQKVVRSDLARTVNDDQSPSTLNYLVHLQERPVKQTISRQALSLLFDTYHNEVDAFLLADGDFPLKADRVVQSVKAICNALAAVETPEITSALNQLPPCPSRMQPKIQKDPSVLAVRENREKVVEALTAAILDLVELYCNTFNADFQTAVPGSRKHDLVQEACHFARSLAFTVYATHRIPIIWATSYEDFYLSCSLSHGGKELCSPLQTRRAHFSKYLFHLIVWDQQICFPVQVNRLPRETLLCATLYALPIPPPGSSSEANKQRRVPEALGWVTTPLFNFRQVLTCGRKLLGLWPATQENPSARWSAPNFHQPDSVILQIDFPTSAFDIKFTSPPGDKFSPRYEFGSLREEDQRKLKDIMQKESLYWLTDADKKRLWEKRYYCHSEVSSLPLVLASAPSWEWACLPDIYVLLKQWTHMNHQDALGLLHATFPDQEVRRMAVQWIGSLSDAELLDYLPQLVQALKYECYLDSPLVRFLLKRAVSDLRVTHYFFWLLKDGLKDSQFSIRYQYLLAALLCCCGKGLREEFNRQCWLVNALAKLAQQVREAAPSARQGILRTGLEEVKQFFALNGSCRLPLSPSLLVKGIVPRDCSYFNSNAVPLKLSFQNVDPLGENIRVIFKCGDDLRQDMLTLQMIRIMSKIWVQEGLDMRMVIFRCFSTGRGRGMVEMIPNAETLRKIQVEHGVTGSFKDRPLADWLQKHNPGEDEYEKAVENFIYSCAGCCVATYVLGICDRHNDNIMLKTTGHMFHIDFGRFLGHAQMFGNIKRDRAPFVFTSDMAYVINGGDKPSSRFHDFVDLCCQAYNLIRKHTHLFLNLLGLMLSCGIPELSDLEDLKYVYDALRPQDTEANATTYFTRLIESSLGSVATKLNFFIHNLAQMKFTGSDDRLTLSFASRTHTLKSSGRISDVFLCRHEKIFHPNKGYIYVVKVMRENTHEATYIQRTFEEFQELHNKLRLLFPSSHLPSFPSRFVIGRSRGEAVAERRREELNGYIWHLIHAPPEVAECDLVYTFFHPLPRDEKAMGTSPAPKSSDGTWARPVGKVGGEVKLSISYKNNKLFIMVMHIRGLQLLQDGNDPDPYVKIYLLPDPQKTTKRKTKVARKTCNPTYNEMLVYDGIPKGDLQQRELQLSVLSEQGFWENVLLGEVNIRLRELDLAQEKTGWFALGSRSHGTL
Chain of Proto-oncogene tyrosine-protein kinase ROS (Homo sapiens) (P08922 whole entry): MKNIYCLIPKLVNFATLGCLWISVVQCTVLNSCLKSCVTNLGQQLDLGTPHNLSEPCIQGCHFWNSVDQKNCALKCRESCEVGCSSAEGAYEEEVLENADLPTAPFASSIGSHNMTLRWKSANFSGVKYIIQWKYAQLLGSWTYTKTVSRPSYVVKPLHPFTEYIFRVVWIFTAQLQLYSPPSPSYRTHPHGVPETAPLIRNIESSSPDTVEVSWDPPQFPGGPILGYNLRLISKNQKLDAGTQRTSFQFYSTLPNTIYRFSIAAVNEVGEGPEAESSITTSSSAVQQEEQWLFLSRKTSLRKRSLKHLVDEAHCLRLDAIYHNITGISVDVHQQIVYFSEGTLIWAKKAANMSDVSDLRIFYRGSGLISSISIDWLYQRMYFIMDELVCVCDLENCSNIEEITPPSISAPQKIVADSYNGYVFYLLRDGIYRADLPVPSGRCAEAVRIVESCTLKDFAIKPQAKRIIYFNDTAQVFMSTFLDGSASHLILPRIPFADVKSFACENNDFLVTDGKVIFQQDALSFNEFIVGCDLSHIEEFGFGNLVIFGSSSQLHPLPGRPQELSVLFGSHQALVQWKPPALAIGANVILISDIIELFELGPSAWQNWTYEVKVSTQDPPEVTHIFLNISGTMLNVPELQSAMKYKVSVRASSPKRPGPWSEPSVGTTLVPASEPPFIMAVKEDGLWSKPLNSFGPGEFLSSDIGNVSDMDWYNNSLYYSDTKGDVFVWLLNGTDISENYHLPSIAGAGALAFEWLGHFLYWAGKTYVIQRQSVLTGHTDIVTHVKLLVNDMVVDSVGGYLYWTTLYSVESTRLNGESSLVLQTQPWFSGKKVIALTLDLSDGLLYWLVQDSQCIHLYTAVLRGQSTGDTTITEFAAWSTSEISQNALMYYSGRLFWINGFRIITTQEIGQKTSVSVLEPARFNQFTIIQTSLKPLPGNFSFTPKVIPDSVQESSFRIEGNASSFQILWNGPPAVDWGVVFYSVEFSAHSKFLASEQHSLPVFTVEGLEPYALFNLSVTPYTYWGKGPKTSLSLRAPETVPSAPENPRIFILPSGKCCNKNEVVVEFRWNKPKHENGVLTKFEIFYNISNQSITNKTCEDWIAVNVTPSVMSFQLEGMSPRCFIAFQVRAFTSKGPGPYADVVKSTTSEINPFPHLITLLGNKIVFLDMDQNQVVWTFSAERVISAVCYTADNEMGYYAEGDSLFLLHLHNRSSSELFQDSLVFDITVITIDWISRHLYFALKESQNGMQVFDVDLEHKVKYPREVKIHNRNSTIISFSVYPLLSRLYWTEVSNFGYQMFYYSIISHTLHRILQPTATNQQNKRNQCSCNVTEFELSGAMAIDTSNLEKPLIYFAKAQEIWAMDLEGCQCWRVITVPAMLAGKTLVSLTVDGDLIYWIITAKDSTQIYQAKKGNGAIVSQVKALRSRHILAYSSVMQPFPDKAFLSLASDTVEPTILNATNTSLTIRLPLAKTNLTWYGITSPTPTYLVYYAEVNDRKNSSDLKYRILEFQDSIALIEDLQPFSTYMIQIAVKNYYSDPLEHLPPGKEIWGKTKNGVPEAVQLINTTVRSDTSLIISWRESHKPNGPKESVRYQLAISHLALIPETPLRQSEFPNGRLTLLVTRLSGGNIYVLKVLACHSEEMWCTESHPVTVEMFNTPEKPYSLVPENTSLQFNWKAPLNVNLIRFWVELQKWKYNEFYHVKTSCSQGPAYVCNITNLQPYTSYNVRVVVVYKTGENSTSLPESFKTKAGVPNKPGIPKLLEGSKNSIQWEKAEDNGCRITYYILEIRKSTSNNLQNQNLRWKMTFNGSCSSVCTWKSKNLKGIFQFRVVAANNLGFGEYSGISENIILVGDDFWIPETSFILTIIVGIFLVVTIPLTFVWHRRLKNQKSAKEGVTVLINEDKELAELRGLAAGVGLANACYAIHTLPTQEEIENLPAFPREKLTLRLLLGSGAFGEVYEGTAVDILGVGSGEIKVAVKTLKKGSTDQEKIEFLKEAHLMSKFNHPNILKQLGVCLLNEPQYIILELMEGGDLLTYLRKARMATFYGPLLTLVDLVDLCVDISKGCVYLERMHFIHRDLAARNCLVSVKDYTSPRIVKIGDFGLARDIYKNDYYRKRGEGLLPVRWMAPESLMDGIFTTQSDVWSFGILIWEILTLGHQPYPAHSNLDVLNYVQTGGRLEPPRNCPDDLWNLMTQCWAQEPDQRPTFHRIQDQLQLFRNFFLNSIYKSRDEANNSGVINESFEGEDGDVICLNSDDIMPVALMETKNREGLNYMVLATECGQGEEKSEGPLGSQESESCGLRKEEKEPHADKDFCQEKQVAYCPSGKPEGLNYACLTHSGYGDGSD

On to `Cc1n[nH]c(C)c1-c1nc(N2CCOC[C@H]2C)c2nc(-c3cccc4[nH]ccc34)ccc2n1`, for which the IC50 (in general, the concentration needed to halve the response being measured) in assay [1] was found to be 246 nM.

With `Nc1ccn([C@@H]2O[C@H](CO)[C@@H](O)C2(F)F)c(=O)n1` [GEMCITABINE], in assay [2], the inhibition in vivo at 50 mg/kg amounted to 76.7%.

Regarding `Cc1nn(-c2cccnc2)c(C)c1-c1cc(N2CC3CCC(C2)O3)nc2c(-c3ccn[nH]3)cnn12`, the result in assay [3], in assay [4], in assay [7], in assay [10], in assay [11] and in [12] was Active. In addition, the outcome in assay [16], in assay [17], in assay [18], in assay [19], in assay [20] and in [21] was Active. Besides, the result in assay [22], in assay [23], in [24], in [26], in [27] and in assay [29] was Active. Besides, the outcome in assay [30] and in assay [32] was Active. The inhibition (as a rule, the percentage by which the read-out fell short of the control) in assay [5] was “Dose-dependent-effect”; in assay [8], greater than 80%; in [13] it was greater than 80%; in assay [14] it was “Dose-dependent-effect”; in assay [15], greater than 80%; in assay [28] it was greater than 80%. For the same molecule, the inhibition entry in assay [31] is “Dose-dependent-effect”. The inhibition result in assay [6] and in assay [25] was “Active” in each case. Further, the Activity result in assay [9] is “Dose-dependent-effect”. For the same molecule, in assay [33], the TGI result is “Active”.

Turning to `Cn1cncc1-c1c(F)cncc1NC(=O)c1c(N)nn2cc(F)cnc12` [TUVUSERTIB], the results for the IC50 in assay [34] and in assay [35] were 730 nM and less than 1000 nM, respectively.

`C[C@@H]1COCCN1c1cc(C2([S@](C)(=N)=O)CC2)nc(-c2cc[nH]c3nccc2-3)n1` [CERALASERTIB]: the Activity is on record as 1.93% in [36], 19.3% in assay [39] and 24% in assay [42]. Besides, the inhibition in vivo at 50 mg/kg in assay [37] was found to be 34%; in [40], 90.6%; in [43], 57%. The IC50 in assay [38] came to 920 nM. In assay [41], the viability at 3 µM turned out to be 54.7%.
